Experimental data from patent US20220184086A1, “PLK1 INHIBITORS AND PSA LEVELS IN PROSTATE CANCER” (Cardiff Oncology, Inc., priority 2019, published 2022).
Where two headings read alike, the source gives them in different places.

Assays:
CYP1A2 = molecular target: T1, CYP1A2 (Homo sapiens, UniProt P05177); assay: Inhibition of human cytochrome P450s, human liver microsomes; format: in vitro ADME
T1 construct: was investigated using human liver microsomes; from tissue; host or cells: human liver microsomes
T1 sequence (P05177 1-516): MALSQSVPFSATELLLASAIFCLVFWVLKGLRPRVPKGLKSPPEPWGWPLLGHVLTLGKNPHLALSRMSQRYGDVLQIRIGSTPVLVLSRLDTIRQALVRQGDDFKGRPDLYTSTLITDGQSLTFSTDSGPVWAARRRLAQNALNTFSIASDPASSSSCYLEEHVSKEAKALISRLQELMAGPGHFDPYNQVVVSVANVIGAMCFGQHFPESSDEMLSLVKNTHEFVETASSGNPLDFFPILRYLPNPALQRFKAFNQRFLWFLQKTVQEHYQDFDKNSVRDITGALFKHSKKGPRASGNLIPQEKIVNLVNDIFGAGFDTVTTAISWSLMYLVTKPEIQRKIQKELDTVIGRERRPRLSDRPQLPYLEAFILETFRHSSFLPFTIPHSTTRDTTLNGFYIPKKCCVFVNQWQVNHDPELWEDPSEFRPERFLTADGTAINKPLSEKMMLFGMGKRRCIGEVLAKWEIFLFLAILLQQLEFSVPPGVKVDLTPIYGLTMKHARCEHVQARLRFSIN

CYP2C8 = molecular target: T2, CYP2C8 (Homo sapiens, UniProt P10632); assay: as above; format: in vitro ADME
T2 construct: was investigated using human liver microsomes; from tissue; host or cells: human liver microsomes
T2 sequence (P10632 1-490): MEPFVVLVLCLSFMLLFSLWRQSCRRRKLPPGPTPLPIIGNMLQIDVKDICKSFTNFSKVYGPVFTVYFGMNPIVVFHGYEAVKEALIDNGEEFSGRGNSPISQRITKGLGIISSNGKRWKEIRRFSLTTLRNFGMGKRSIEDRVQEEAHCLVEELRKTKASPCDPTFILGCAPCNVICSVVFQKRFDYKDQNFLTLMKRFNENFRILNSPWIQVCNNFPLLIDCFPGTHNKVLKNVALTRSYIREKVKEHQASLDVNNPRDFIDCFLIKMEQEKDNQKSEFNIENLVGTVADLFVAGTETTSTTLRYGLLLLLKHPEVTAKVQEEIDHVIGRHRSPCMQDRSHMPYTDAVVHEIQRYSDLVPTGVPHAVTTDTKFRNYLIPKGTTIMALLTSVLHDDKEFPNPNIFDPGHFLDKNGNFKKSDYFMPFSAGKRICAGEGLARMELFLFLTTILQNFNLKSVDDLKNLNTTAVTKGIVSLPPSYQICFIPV

CYP2C9 = molecular target: T3, CYP2C9 (Homo sapiens, UniProt P11712); assay: as above; format: in vitro ADME; conditions: Diclofenac 4-hydroxylation, mean ± SEM
T3 construct: was investigated using human liver microsomes; from tissue; host or cells: human liver microsomes
T3 sequence (P11712 whole entry): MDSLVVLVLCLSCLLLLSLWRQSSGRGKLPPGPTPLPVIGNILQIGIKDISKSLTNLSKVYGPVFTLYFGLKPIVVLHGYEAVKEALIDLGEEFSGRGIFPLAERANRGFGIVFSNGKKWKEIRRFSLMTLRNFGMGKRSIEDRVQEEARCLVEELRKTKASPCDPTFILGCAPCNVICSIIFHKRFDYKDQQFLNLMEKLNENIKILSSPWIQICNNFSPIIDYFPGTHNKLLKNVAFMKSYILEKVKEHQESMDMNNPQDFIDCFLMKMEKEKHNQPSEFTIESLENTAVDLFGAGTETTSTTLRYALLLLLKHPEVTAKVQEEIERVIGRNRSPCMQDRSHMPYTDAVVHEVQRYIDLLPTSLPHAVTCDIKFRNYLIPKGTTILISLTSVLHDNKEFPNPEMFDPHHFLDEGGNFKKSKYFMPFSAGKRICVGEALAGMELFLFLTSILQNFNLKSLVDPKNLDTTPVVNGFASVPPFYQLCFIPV

CYP2C19 = molecular target: T4, CYP2C19 (Homo sapiens, UniProt P33261); assay: as above; format: in vitro ADME; conditions: Mephenytoin 4-hydroxylation, mean ± SEM
T4 construct: was investigated using human liver microsomes; from tissue; host or cells: human liver microsomes
T4 sequence (P33261 whole entry): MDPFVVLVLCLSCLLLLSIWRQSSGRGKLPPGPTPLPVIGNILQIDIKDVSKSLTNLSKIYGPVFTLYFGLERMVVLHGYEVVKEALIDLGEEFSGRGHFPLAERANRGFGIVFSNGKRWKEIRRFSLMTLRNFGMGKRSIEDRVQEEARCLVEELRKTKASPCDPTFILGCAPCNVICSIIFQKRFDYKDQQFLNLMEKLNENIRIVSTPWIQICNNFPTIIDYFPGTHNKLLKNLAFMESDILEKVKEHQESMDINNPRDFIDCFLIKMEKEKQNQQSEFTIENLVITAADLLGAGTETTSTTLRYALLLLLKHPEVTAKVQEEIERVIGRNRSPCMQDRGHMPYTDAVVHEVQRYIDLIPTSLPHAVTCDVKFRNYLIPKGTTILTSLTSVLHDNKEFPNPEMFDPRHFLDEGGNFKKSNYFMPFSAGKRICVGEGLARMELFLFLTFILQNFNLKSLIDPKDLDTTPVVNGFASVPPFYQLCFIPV

CYP2D6 = molecular target: T5, CYP2D6 (Homo sapiens, UniProt P10635); assay: as above; format: in vitro ADME; conditions: Bufuralol 1-hydroxylation, mean ± SEM
T5 construct: was investigated using human liver microsomes; from tissue; host or cells: human liver microsomes
T5 sequence (P10635 whole entry): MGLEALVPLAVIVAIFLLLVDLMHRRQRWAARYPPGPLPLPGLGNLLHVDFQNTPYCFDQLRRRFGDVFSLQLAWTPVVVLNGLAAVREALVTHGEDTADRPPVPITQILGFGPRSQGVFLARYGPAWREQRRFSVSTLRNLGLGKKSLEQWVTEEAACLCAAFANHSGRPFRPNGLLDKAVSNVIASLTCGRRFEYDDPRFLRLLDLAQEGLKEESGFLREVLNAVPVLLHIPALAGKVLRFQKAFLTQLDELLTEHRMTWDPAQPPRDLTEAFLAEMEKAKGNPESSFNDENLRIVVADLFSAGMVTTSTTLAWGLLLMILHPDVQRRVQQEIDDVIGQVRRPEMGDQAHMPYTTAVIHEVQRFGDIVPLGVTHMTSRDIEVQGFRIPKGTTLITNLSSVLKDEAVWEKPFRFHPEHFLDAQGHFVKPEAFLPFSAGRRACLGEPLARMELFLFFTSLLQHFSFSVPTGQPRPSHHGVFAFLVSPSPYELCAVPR

CYP3A4 = molecular target: T6, CYP3A4 (Homo sapiens, UniProt P08684); assay: as above; format: in vitro ADME; conditions: mean ± SEM
T6 construct: was investigated using human liver microsomes; from tissue; host or cells: human liver microsomes
T6 sequence (P08684 whole entry): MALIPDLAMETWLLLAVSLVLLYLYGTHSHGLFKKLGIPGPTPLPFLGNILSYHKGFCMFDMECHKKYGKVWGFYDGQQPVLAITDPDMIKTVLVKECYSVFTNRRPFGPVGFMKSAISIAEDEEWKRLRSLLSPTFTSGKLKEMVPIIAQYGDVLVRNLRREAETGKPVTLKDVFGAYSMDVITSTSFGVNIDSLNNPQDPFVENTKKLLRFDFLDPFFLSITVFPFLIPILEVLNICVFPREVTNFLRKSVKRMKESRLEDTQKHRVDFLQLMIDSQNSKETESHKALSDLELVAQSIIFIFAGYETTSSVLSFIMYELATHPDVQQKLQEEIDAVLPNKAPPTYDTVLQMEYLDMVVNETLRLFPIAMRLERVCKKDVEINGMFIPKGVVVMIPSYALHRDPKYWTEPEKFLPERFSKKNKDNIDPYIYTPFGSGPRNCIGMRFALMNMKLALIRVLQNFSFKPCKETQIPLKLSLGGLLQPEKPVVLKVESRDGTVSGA

[1] = Pharmacokinetics from the prior phase 1 trial; format: in vivo; conditions: 24 mg/m^2 dose
Excerpt: This is consistent with the observed downward changes of PSA values for patients shown above.

[2] = system: circulating tumor cells (CTC); assay: Phase 2 study: circulating tumor cell (CTC) evaluation; format: in vivo, human; conditions: for CTC Fold Change: C1D1 to C5D1; for CTC Count (C5D1): onvansertib+abiraterone
Method: Circulating tumor cell (CTC) evaluation, reported as favorable or unfavorable (<5 vs.≥CTC/7.5 ml of blood), is shown in FIG. 8. At baseline, 25 (78%) patients had unfavorable CTC count with median of 19 CTC/7.5 ml. Ten of the unfavorable patients were re-analyzed after 12 weeks of treatment.

[3] = Phase 2 study Arm A: absolute neutrophil counts (ANC); format: in vivo, human; conditions: 7 patients plotted, patients 02-002 and 02-005
Method: To evaluate this further, neutrophil levels were assessed for patients within Arm A of the current trial. Absolute neutrophil counts (ANC) are plotted in FIG. 3 for 7 patients, with ANC 1.5 indicated as the threshold for Grade 2 (CTCAE version 4.03). Two patients experienced ≥Grade 2 neutropenia after the first cycle of treatment (02-002 and 02-005).

[4] = system: patients with metastatic castration-resistant prostate cancer (mCRPC)
[5] = system: cell lines, both from solid as well as hematologic tumors; conditions: large number of cell lines; cited from earlier work
xenograft tumor = conditions: mice, oral administration, well tolerated doses; cited from earlier work
[6] = rodent and nonrodent species; cited from earlier work
[7] = system: adult patients with advanced/metastatic solid tumors; conditions: cited from earlier work
[8] = ten patients with unfavorable baseline CTC re-analyzed after 12 weeks of treatment

With `CN1CCN(c2ccc(OC(F)(F)F)c(Nc3ncc4c(n3)-c3c(c(C(N)=O)nn3CCO)CC4)c2)CC1` [onvansertib, 1-(2-hydroxyethyl)-8-{[5-(4-methylpiperazin-1-yl)-2-(trifluoromethoxy)phenyl]amino}-4,5-dihydro-1H-pyrazolo[4,3-h]quinazoline-3-carboxamide] the “inhibitory effects against CYP1A2” value (CYP1A2) was “No significant inhibitory effects”, the IC50 (CYP1A2; Tacrine 1-hydroxylation) was greater than 100 µM and the IC50 (CYP2C8) was 20.2 ± 1.6 µM. For the same compound, the IC50 (CYP2C9) was 20.4 ± 3.2 µM, the IC50 (CYP2C19) was 36.9 ± 15.7 µM and the IC50 (CYP2D6) was 26.8 ± 5.4 µM. The IC50 (CYP3A4; Midazolam l′-hydroxylation) was 66.2 ± 4 µM, the IC50 (CYP3A4; Testosterone 6β-hydroxylation) was 52.7 ± 9.8 µM and the “time at which the amount of onvansertib is below the 10×IC50 value” [1] was 160 h. For the same compound, the concentration at 290 h ([1]; human, plasma, oral, 0.1 ng/ml is the limit of quantitation, read-out: drug concentrations at 290 hours (˜12 days)) was less than 0.1 ng/mL, the “CTC Fold Change” value ([2]; patient 02-003) was 17.9 and the “CTC Count (C5D1)” value ([2]; patient 02-003, CTC count at C1D1 4.4) was 78.6. For the same compound, the “CTC Fold Change” value ([2]; patient 02-007) was 6.9, the “CTC Count (C5D1)” value ([2]; patient 02-007, CTC count at C1D1 2.5) was 17.3 and the “CTC Fold Change” value ([2]; patient 03-004) was 3.0. The “CTC Count (C5D1)” value ([2]; patient 03-004, CTC count at C1D1 0.4) was 1.2, the “CTC Fold Change” value ([2]; patient 03-009) was 1.5 and the “CTC Count (C5D1)” value ([2]; patient 03-009, CTC count at C1D1 3.7) was 5.4. For the same compound, the “CTC Fold Change” value ([2]; patient 03-013) was 1.4, the “CTC Count (C5D1)” value ([2]; patient 03-013, CTC count at C1D1 2.2) was 3.0 and the “median time on treatment” value ([2]; patients with decrease CTC (n=5), to-date) was 7 months. For the same compound, the “median time on treatment” value ([2]; patients with increase CTC (n=5)) was 5 months, the “patients converted from unfavorable to favorable CTC level (<5 CTC/7.5 ml)” value [2, 8] was 40% and the “patients with a ≥80% CTC decrease” value [2, 8] was 50%. For the same compound, the “patients with no detectable CTC” value [2, 8] was 30%, the “patients with ≥Grade 2 neutropenia after the first cycle” value [3] was “Two” and the “patients with disease stabilization after 5 or more treatment cycles” value ([4]; 03-013 (Arm A) and 01-024 (Arm B)) was “two”. The “initial PSA stabilization or decrease in AR-V7+ subjects” value ([4]; AR-V7+ subjects (n=4), August 2019) was “all”, the “AR-V7 positive patients achieving the primary endpoint of stable disease” value ([4]; AR-V7 positive patients who completed 3 months of treatment) was “Three of 4” and the “initial PSA stabilization or decrease in AR-V7 positive patients” value ([4]; AR-V7 positive patients who completed at least 1 cycle (n=5)) was “all”. For the same compound, the “patients achieving the efficacy endpoint (PSA stabilization)” value ([4]; Arm A (n=14)) was 5 patients, the “patients remaining on treatment for >1 year” value ([4]; Arm A (n=14)) was 2 patients and the “patients with SD or PR at 12 weeks” value ([4]; Arm A (n=14), 8 of 14) was 57%. For the same compound, the “patients who have or had progression-free survival” value ([4]; Arm A, 3 of 14) was 21%, the “PSA values at day 8 relative to baseline” value ([4]; Arm A, after dosing on days 1-5, with abiraterone and prednisone, then increase until next cycle) was “go down” and the “subjects with initial disease stabilization or reduction, based on PSA levels” value ([4]; Arm B) was 3 subjects. For the same compound, the “patients achieving the efficacy endpoint (PSA stabilization)” value ([4]; Arm B (n=5)) was 3 patients, the “patients with SD at 12 weeks” value ([4]; Arm B (n=5), 4 of 5) was 80% and the “patients who have or had progression-free survival of >7 months” value ([4]; Arm B, 3 of 5) was 60%. For the same compound, the “tumor shrinkage by CT scan at the end of the study” value ([4]; Patient 03-013 (AR-V7), Arm A) was roughly 30%, the “PSA level increase after onvansertib was added” value ([4]; Patient 03-013 (AR-V7), Arm A, 84 days, with abiraterone/prednisone) was 8.4% and the “PSA level above the baseline (C1D1) PSA level” value ([4]; Patient 03-013, Arm A, into the fifth cycle) was “below 25%”. The “patients with decreases in PSA levels” value ([4]; after 1 cycle of treatment with addition of onvansertib, eighteen out of 25) was 72%, the “AR-V7+ patients who met the primary efficacy endpoint” value ([4]; of AR-V7+ subjects (n=4), 03-013, 01-024) was “Two” and the “patients confirmed AR-V7+ that have shown a PSA response” value ([4]; patients who completed 4 cycles (12 weeks), onvansertib added to abiraterone) was 2 of 6. The “activity in proliferation assays” value [5] was “low nanomolar activity”, the xenograft tumor growth (xenograft tumor) was “inhibits xenograft tumor growth” and the oral bioavailability [6] was “good oral bioavailability”. For the same compound, the DLTs observed ([7]; 36 mg/m^2/day, four patients treated) was “two”, the “patients who developed DLTs” value ([7]; 48 mg/m^2/day) was 2 of 3 and the “dose-limiting toxicities (DLT)” value ([7]; first 3 dose levels (6, 12, and 24 mg/m^2/day)) was “No DLTs”. For the same compound, the “outcome of the one evaluable patient with prostate cancer” value ([7]; in vivo) was “disease progression”, the primary toxicities ([7]; in vivo) was “thrombocytopenia and neutropenia” and the “best observed treatment response: disease stabilization” value ([7]; of the 16 evaluable patients) was 5 patients. The “maximum tolerated dose (MTD)” value ([7]; oral, 5 consecutive days every 3 weeks) was 24 mg/m^2/day and the “recovery of hematologic toxicities” value ([7]; thrombocytopenia and neutropenia, reversible) was no more than 3 weeks.
